US20220241412A1, “COMBINATION THERAPIES USING CDK INHIBITORS” (Pfizer Inc., priority 2019, published 2022)

Columns and labels:
Type in all cases: in vivo
MC38 tumor cells [1] = assay: MC38 syngeneic mouse tumor model, PF-06873600 with checkpoint antibodies (Example 2); conditions: for tumor growth inhibition (in words): MC38 model, day 27 post-treatment initiation; for CR % on day 27: complete response; for CR % on day 27 / TGI % on day 27: day 27, s.c. MC38 tumors in female C57/BL6 mice, doses as in Table 10; for TGI % on day 27: tumor growth inhibition
Procedure: MC38 cells were obtained from American Type Culture Collection (ATCC) and cultured in Roswell Park Memorial Institute (RPMI1640) supplemented with 10% fetal bovine serum (FBS). All cells were maintained in a humidified incubator at 37° C. with 5% carbon dioxide (CO2). Female C57/BL6 mice were obtained from Jackson Laboratories at 8 weeks of age. To generate the syngeneic model, 0.5 million MC38 tumor cells were subcutaneously implanted into the right flank of female C57/BL6 mice. Tumor bearing mice were randomized into nine treatment groups based on average tumor sizes of approximately 70 mm^3 per group, on Day 9 post tumor cell implantation. Study groups included vehicle, 30 mg/kg PF-06873600 (CDK 2/4/6 inhibitor) twice daily by oral gavage, avelumab (anti-PD-L1 antibody, PF-06834635) administered by intraperitoneal (IP) injection, 10 mg/kg, combination of avelumab administered at 10 mg/kg with anti-OX40 antibody (PF-07201252) administered at 5 mg/kg by IP injection, combination of anti-PD-L1 antibody administered at 10 mg/kg with anti-4-1BB antibody (PF-07218859) administered at 3 mg/kg by IP injection, combination of anti-PD-L1 antibody as described above with PF-06873600 administered at 30mg/kg twice daily by oral gavage, combination of anti-PD-L1 antibody and anti-OX40 antibody as described above with PF-06873600 administered at 30 mg/kg twice daily by oral gavage, combination of anti-PD-L1 antibody with anti-4-1BB antibody as described above with PF-06873600 administered at 30mg/kg twice daily by oral gavage and combination of anti-PD-L1 antibody, anti-OX40 antibody and anti-41-BB antibody as described above with PF-06873600 administered at 30 mg/kg twice daily by oral gavage. All antibodies were administered as three doses; one every three days after the study initiation. All antibody formulations are phosphate buffered saline based while PF-06873600 was administered in a 0.5% methocel/Tween suspension.
Tumor volumes were measured three times a week. Tumor volume was calculated based on two-dimensional caliper measurement with cubic millimeter volume calculated using the formula (length×width2)×0.5. Mice were sacrificed when the tumor volumes reached 2000 mm^3, which was the survival endpoint for this study. Survival curves were plotted using GraphPad Prism 7 software. Statistical significance determined using the Holm-Sidak method, with alpha=0.05.

4T1 tumor cells = assay: 4T1 syngeneic mouse tumor model, PF-06873600 with checkpoint antibodies (Example 7)
Procedure: 4T1 cells were obtained from American Type Culture Collection (ATCC) and cultured in Roswell Park Memorial Institute (RPMI1640) supplemented with 10% fetal bovine serum (FBS). All cells were maintained in a humidified incubator at 37° C. with 5% carbon dioxide (CO2). Female C57/BL6 mice were obtained from Jackson Laboratories at 8 weeks of age. To generate the syngeneic model, 30,000 4T1 tumor cells were subcutaneously implanted into the right flank of […]. Tumor bearing mice were randomized into four treatment groups based on average tumor sizes of approximately 70 mm^3 per group. Study groups included vehicle, 30 mg/kg PF-06873600 (CDK 2/4/6 inhibitor) twice daily by oral gavage, combination of 10 mg/kg anti-PD-1 antibody (PF-06937004) with 5 mg/kg anti-OX40 antibody (PF-07201252) and with 3 mg/kg anti-4-1BB antibody (PF-07218859) all administered by IP injection, and the combination of PF-06873600, anti-PD-1 antibody, anti-OX40 antibody and anti-41-BB antibody dosed as described in the cohorts above. […]
(§1) Tumor volumes were measured three times a week. Tumor volume was calculated based on two-dimensional caliper measurement with cubic millimeter volume calculated using the formula (length×width2)×0.5. […] Statistical significance determined using the Holm-Sidak method, with alpha=0.05.

MC38 tumor cells [2] = assay: MC38 syngeneic mouse tumor model, palbociclib with checkpoint antibodies (Example 1)
Procedure: MC38 cells were obtained from American Type Culture Collection (ATCC) and cultured in Roswell Park Memorial Institute (RPMI1640) supplemented with 10% fetal bovine serum (FBS). All cells were maintained in a humidified incubator at 37° C. with 5% carbon dioxide (CO2). Female C57/BL6 mice were obtained from Jackson Laboratories at 8 weeks of age. To generate the syngeneic model, 0.5 million MC38 tumor cells were subcutaneously implanted into the right flank of female C57/BL6 mice. Tumor bearing mice were randomized into four treatment groups based on average tumor sizes of approximately 70 mm^3 per group, on Day 9 post tumor cell implantation. […]
as §1

## C[C@@]1(O)CCC[C@H]1n1c(=O)c(C(F)F)cc2cnc(NC3CCN(S(C)(=O)=O)CC3)nc21 [PF-06873600, 6-(difluoromethyl)-8-((1R,2R)-2-hydroxy-2-methylcyclopentyl)-2-(1-(methylsulfonyl)piperidin-4-ylamino)pyrido[2,3-d]pyrimidin-7(8H)-one]
MC38 tumor cells [1]
  tumor growth inhibition (in words): did not significantly inhibit tumor growth
  CR % on day 27: 0%
  TGI % on day 27: −7%
4T1 tumor cells; 4T1 model, day 18 post-treatment initiation
  tumor growth inhibition (in words): significantly inhibited tumor growth
4T1 tumor cells; tumor growth inhibition, s.c. 4T1 tumors in female C57/BL6 mice, doses as in Table 16
  TGI % on day 27: 66%

## CC(=O)c1c(C)c2cnc(Nc3ccc(N4CCNCC4)cn3)nc2n(C2CCCC2)c1=O [palbociclib, 6-acetyl-8-cyclopentyl-5-methyl-2-(5-piperazin-1-yl-pyridin-2-ylamino)-8H-pyrido[2,3-d]pyrimidin-7-one]
MC38 tumor cells [2]; MC38 model, day 27 post-treatment initiation
  tumor growth inhibition (in words): did not significantly inhibit tumor growth
MC38 tumor cells [2]; tumor growth inhibition, day 27, s.c. MC38 tumors in female C57/BL6 mice, doses as in Table 8
  TGI % on day 27: 29%

## PF-06834635: avelumab (anti-PD-L1 antibody, PF-06834635)
MC38 tumor cells [1]
  tumor growth inhibition (in words): did not significantly inhibit tumor growth
  CR % on day 27: 0%
  TGI % on day 27: 9%
